Data from patent publication US20100075343A1, “NOVEL PEPTIDES” (priority 2007, published 2010).
Ends that are not written are not given here.

Legend:
[1] = test system: antiserum against ESPGPERVW peptide of human VGF; format: binding; conditions: for inhibition of binding of the antiserum to labeled peptide: 1, 10, and 100 pmol of the peptides
Protocol: Namely, to 100 μL of antiserum diluted 9×10^5 folds with RIA buffer, 100 μL of RIA buffer containing a fixed amount of [^125I]-labeled Peptide 1 (approximately 20000 cpm, 500-550 Bq, approximately 9 fmol in terms of peptide amount) and 100 μL of RIA buffer solutions each containing a sequentially diluted VGF-derived peptide were added, this was incubated at 4° C. for 40 hours, and the labeled Peptide 1 and VGF-derived peptide were competitively bound to the antibody in the antiserum. As controls, reactions that use RIA buffer instead of the antiserum to measure non-specific binding, and reactions that use RIA buffer instead of VGF-derived peptide solutions to measure the maximum binding level were carried out. Reactions for non-specific binding were performed in quadruplicates, and the other reactions were performed in duplicates, and for each of the reactants, the immune complex was precipitated as in the above-mentioned antibody titer measurements, and its radioactivity (cpm) was measured. The average radioactivity of non-specific binding reaction is defined as non-specific binding level N, the radioactivity value for each VGF-derived peptide addition reaction is defined as Y, and the radioactivity value of maximum binding reaction is defined as Z. The percentage ratio (B/B0) of antiserum specific binding level (B) with peptide addition to the maximum binding level (B0), was determined using the following formula.
B/B0(%)={(Y−N)/(Z−N)}×100
Accordingly, the amount of peptide that achieves 50% B/B0, more specifically, the amount of peptide that yields 50% inhibition of the maximum binding level, was used as an indicator of the peptide binding activity to the antiserum.

[2] = test system: hypothalamic cells of the apoaequorin-expressing mice; assay: Intracellular calcium ion increase (aequorin luminescence), hypothalamus; format: cell-based, mouse; conditions: for increase of intracellular calcium concentration in hypothalamic cells (RLU per second): added at 25 seconds; for luminescence (intracellular calcium ion increase) in hypothalamus: peptide at final concentrations of 1 μmol/L and 5 μmol/L
Protocol: (§1) A hypothalamus, pituitary gland, kidney, heart, blood vessel, or a portion of brain tissue is collected from transgenic mice systemically expressing apoaequorin (WO02/010371) produced by introducing an apoaequorin gene expression vector into fertilized eggs. The obtained hypothalamus, pituitary gland, kidney, heart, blood vessel, or brain tissue is cut finely into pieces, suspended in a medium containing coelenterazine, and then incubated to incorporate coelenterazine into the cells to form aequorin (a complex of apoaequorin and coelenterazine). Since aequorin luminesces upon binding to intracellular calcium ions, the relative luminescence level in cells before and after addition of a medium containing the peptide or a pharmaceutically acceptable salt thereof is measured in a luminometer every second over time and is used as an indicator of intracellular calcium ion concentration. Increase in the relative luminescence level due to addition of the peptide or pharmaceutically acceptable salt thereof confirms that the peptide or pharmaceutically acceptable salt thereof has the activity to increase intracellular calcium ion concentration.
(§2) Whether Peptides 1 to 8 synthesized in Example 2 have the activity of increasing intracellular calcium ion concentration was investigated using the organs of transgenic mice introduced with the apoaequorin gene and systemically expressing apoaequorin (hereinafter referred to as apoaequorin-expressing mice). In apoaequorin-expressing mouse cells, light is emitted when apoaequorin binds to a calcium ion in the presence of the luminescent substrate coelenterazine and thus the intracellular calcium ion concentration can be monitored. Patent Document (WO02/010371) discloses the method for producing apoaequorin-expressing mice, method for evaluating biologically active substances that use biological samples derived from the mice, and experimental results of evaluating biologically active peptides using the mouse organs as shown below. […] Therefore, apoaequorin-expressing mice can be used in the evaluation of the physiological activities of novel peptides.
(§3) Apoaequorin-expressing mice were produced according to the method disclosed in Reference Example 4 of Patent Document (WO02/010371). The apoaequorin-expressing mice were sacrificed, individual organs including thymus, hypothalamus, spleen, bone, aorta, heart, kidney, adrenal gland, pancreas, pituitary gland, uterus, medulla oblongata, and spinal cord were removed; and each of the organs was cut into small cubes of approximately 1 to 2 mm^3. Next, in 5-mL tubes (Rohren-Tubes; manufactured by Sarstedt, No. 55.476), three portions of each of the prepared organs were added to 50 μL of a 10 μmol/L solution of coelenterazine (manufactured by Molecular Probes) dissolved in RPMI 1640 medium, and these were cultured at 37° C. for three hours. After culturing, RPMI 1640 medium was added, and then Peptides 1 to 5 dissolved in RPMI 1640 medium were added 25 seconds after the addition of RPMI 1640 until each peptide had final concentrations of 1 μmol/L and of 5 μmol/L, and the relative luminescence levels were measured every second immediately after the addition of RPMI 1640 medium by using a luminometer (AutoLumat LB953, manufactured by Berthold).

[3] = test system: pituitary cells of the apoaequorin-expressing mice; assay: Intracellular calcium ion increase (aequorin luminescence), pituitary gland; format: cell-based, mouse; conditions: for increase of intracellular calcium concentration in pituitary cells (RLU per second): added at 25 seconds; for luminescence (intracellular calcium ion increase) in pituitary gland: peptide at final concentrations of 1 μmol/L and 5 μmol/L
Protocol: as §1, §2, §3

[4] = test system: medulla oblongata of apoaequorin-expressing mice; assay: Intracellular calcium ion increase (aequorin luminescence), medulla oblongata; format: cell-based, mouse; conditions: peptide at final concentrations of 1 μmol/L and 5 μmol/L
Protocol: as §1, §2, §3

[5] = test system: cardiac cells of the apoaequorin-expressing mice; assay: Intracellular calcium ion increase (aequorin luminescence), heart; format: cell-based, mouse
Protocol: as §1, §2, §3

[6] = test system: thymus of apoaequorin-expressing mice; assay: Intracellular calcium ion increase (aequorin luminescence), thymus; format: cell-based, mouse; conditions: peptide at final concentrations of 1 μmol/L and 5 μmol/L
Protocol: as §1, §2
Apoaequorin-expressing mice were produced according to the method disclosed in Reference Example 4 of Patent Document (WO02/010371). […] After culturing, RPMI 1640 medium was added, and then Peptides 1 to 5 dissolved in RPMI 1640 medium were added 25 seconds after the addition of RPMI 1640 until each peptide had final concentrations of 1 μmol/L and of 5 μmol/L, and the relative luminescence levels were measured every second immediately after the addition of RPMI 1640 medium by using a luminometer (AutoLumat LB953, manufactured by Berthold).

[7] = test system: kidney cells of the apoaequorin-expressing mice; assay: Intracellular calcium ion increase (aequorin luminescence), kidney; format: cell-based, mouse
Protocol: as §1, §2, §3

male rats = conditions: direct administration to the PVN of male rats; Non-patent Document 7; cited from earlier work
[8] = 1 μmol/L peptide, added at 25 seconds
[9] = peptide at final concentrations of 1 μmol/L and 5 μmol/L

## CC[C@H](C)[C@@H]1NC(=O)[C@H](CCCNC(=N)N)NC(=O)[C@H](CC(=O)O)NC(=O)[C@H](CCSC)NC(=O)[C@H](CCCNC(=N)N)NC(=O)CNC(=O)CNC(=O)[C@H](Cc2ccccc2)NC(=O)[C@@H](NC(=O)[C@H](CO)NC(=O)[C@H](CO)NC(=O)[C@H](CCCNC(=N)N)NC(=O)[C@H](CCCNC(=N)N)NC(=O)[C@H](CC(C)C)NC(=O)[C@@H](N)CO)CSSC[C@@H](C(=O)N[C@@H](CC(N)=O)C(=O)N[C@@H](CO)C(=O)N[C@@H](Cc2ccccc2)C(=O)N[C@@H](CCCNC(=N)N)C(=O)N[C@@H](Cc2ccc(O)cc2)C(=O)O)NC(=O)CNC(=O)[C@H](CC(C)C)NC(=O)CNC(=O)[C@H](CO)NC(=O)[C@H](CCC(N)=O)NC(=O)[C@H](C)NC(=O)CNC1=O [atrial natriuretic peptide]
[1]
  inhibition of binding of the antiserum to labeled peptide: none of these peptides showed inhibition

## NC(=O)CC[C@@H]1NC(=O)[C@H](Cc2ccccc2)NC(=O)[C@H](Cc2ccc(O)cc2)NC(=O)[C@@H](N)CSSC[C@@H](C(=O)N2CCC[C@H]2C(=O)N[C@@H](CCCN=C(N)N)C(=O)NCC(N)=O)NC(=O)[C@H](CC(N)=O)NC1=O [vasopressin]
[1]
  inhibition of binding of the antiserum to labeled peptide: none of these peptides showed inhibition

## ESPGPERVW
[1]; antiserum diluted 9×10^5 folds, [125I]-labeled peptide approximately 9 fmol
  amount of the peptide that yields 50% inhibition of the maximum binding level (B/B0 50%): 9.0 fmol

## Leu-enkephalin
[1]
  inhibition of binding of the antiserum to labeled peptide: none of these peptides showed inhibition

## Met-enkephalin-Arg-Gly-Leu (YGGFMRGL) [non-VGF peptide]
[1]
  inhibition of binding of the antiserum to labeled peptide: none of these peptides showed inhibition

## PAMP-20
[1]
  inhibition of binding of the antiserum to labeled peptide: none of these peptides showed inhibition

## Peptide 2: amino acid sequence at position 195 to 206 in human VGF (VNLESPGPERVW; synthetic Peptide 2, VGF-related peptide, human VGF positions 195-206)
[2]; 1 μmol/L peptide
  increase of intracellular calcium concentration in hypothalamic cells (RLU per second): increase of intracellular calcium concentration
[2]
  luminescence (intracellular calcium ion increase) in hypothalamus: luminescence was observed
[3]; 1 μmol/L peptide
  increase of intracellular calcium concentration in pituitary cells (RLU per second): increase of intracellular calcium concentration
[3]
  luminescence (intracellular calcium ion increase) in pituitary gland: luminescence was observed
[4]
  luminescence (intracellular calcium ion increase) in medulla oblongata: luminescence was observed
[5]; [8]
  increase of intracellular calcium concentration in cardiac cells (RLU per second): increase of intracellular calcium concentration
[5]; [9]
  luminescence (intracellular calcium ion increase) in heart: luminescence was observed

## Peptide 3: amino acid sequence at position 485 to 495 in human VGF (NAPPEPVPPPR; synthetic Peptide 3, VGF-related peptide, human VGF positions 485-495)
[2]; 1 μmol/L peptide
  increase of intracellular calcium concentration in hypothalamic cells (RLU per second): increase of intracellular calcium concentration
[2]
  luminescence (intracellular calcium ion increase) in hypothalamus: luminescence was observed
[3]; 5 μmol/L peptide
  increase of intracellular calcium concentration in pituitary cells (RLU per second): increase of intracellular calcium concentration
[3]
  luminescence (intracellular calcium ion increase) in pituitary gland: luminescence was observed
[6]
  luminescence (intracellular calcium ion increase) in thymus: luminescence was observed
[4]
  luminescence (intracellular calcium ion increase) in medulla oblongata: luminescence was observed
[7]; [8]
  increase of intracellular calcium concentration in kidney cells (RLU per second): increase of intracellular calcium concentration
[7]; [9]
  luminescence (intracellular calcium ion increase) in kidney: luminescence was observed

## Peptide 9: amino acid sequence at position 554 to 577 in human VGF (TLQPPSALRRRHYHHALPPSRHYP; synthetic Peptide 9, VGF-related peptide, human VGF positions 554-577)
[2]; 5 μmol/L peptide
  increase of intracellular calcium concentration in hypothalamic cells (RLU per second): increase of intracellular calcium concentration
[2]
  luminescence (intracellular calcium ion increase) in hypothalamus: luminescence was observed
[3]; 5 μmol/L peptide
  increase of intracellular calcium concentration in pituitary cells (RLU per second): increase of intracellular calcium concentration
[3]
  luminescence (intracellular calcium ion increase) in pituitary gland: luminescence was observed

## adrenomedullin
[1]
  inhibition of binding of the antiserum to labeled peptide: none of these peptides showed inhibition

## calcitonin
[1]
  inhibition of binding of the antiserum to labeled peptide: none of these peptides showed inhibition

## calcitonin receptor-stimulating peptide
[1]
  inhibition of binding of the antiserum to labeled peptide: none of these peptides showed inhibition

## corticotropin-releasing factor
[1]
  inhibition of binding of the antiserum to labeled peptide: none of these peptides showed inhibition

## glucagon
[1]
  inhibition of binding of the antiserum to labeled peptide: none of these peptides showed inhibition

## melanin-concentrating hormone
[1]
  inhibition of binding of the antiserum to labeled peptide: none of these peptides showed inhibition

## melanocyte-stimulating hormone
[1]
  inhibition of binding of the antiserum to labeled peptide: none of these peptides showed inhibition

## neuromedin U-8
[1]
  inhibition of binding of the antiserum to labeled peptide: none of these peptides showed inhibition

## neuropeptide Y
[1]
  inhibition of binding of the antiserum to labeled peptide: none of these peptides showed inhibition

## peptide HI: non-VGF peptide (HADGVFTSDYSRLLGQISAKKYLESLI; ends and bridges not checked; UniProt P01283 81-107, looked up)
[1]
  inhibition of binding of the antiserum to labeled peptide: none of these peptides showed inhibition

## rat VGF (577-617): known partial peptide, positions 577-617 of rat VGF (HHPDLEAQARRAQEEADAEERRLQEQEELENYIEHVLLHRP; UniProt P20156 577-617, looked up, fragment)
Male rats
  erection inducing activity: showed an erection inducing activity

## rat VGF (588-617): known partial peptide, positions 588-617 of rat VGF (AQEEADAEERRLQEQEELENYIEHVLLHRP; UniProt P20156 588-617, looked up, fragment)
Male rats
  erection inducing activity: showed an erection inducing activity

## rat VGF (599-617): known partial peptide, positions 599-617 of rat VGF (LQEQEELENYIEHVLLHRP; UniProt P20156 599-617, looked up, fragment)
Male rats
  erection inducing activity: showed an erection inducing activity

## secretin
[1]
  inhibition of binding of the antiserum to labeled peptide: none of these peptides showed inhibition
